Experimental data as given in patent publication US20250101041A1, “POSITIVE ALLOSTERIC MODULATORS OF THE MUSCARINIC ACETYLCHOLINE RECEPTOR M4” (Vanderbilt University, priority 2022, published 2025).

Target: T1, human mAChR M4 (Homo sapiens, UniProt P08173)
T1 construct: expressed in transfected cells; host or cells: CHO-K1 (American Type Culture Collection), stably expressing hM4 and Gqi5
T1 sequence (P08173 1-479): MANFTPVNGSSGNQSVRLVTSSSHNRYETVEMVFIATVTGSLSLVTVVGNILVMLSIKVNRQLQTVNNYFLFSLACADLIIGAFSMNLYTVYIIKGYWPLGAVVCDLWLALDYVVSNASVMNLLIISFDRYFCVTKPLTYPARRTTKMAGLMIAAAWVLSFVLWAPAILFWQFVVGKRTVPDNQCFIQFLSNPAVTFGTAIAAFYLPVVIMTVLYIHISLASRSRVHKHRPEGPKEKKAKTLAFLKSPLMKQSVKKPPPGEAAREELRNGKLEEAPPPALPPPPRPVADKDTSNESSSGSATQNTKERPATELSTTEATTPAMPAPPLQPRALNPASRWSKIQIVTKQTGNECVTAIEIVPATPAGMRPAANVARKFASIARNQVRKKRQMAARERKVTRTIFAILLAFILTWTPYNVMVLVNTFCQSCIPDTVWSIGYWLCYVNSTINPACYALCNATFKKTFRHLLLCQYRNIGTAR
Assay: mAChR M4 cell-based functional assay: calcium mobilization (Fluo-4, FDSS), potentiation of EC20 acetylcholine response in hM4-Gqi5 CHO-K1 cells
Settings: human M4; for Emax at 30 µM: CHO-K1, % ACh maximum at 30 μM; for EC50: potentiation of EC20 acetylcholine response, calcium mobilization
Summary of the method: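 Readout is the fluorescence-ratio rise at 1 Hz on FDSS, with PAM activity taken as concentration-dependent enhancement of the EC20 acetylcholine response, fitted four-parameter for EC50/Emax. hM4-Gqi5 CHO-K1 cells carried Fluo-4 AM dye; test compounds (11 points, 1:3) preceded EC20 acetylcholine additions at 144 s and 230 s.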

| Compound | Emax at 30 µM [%] | EC50 [nM] |
| --- | --- | --- |
| Cc1cc(=O)n2nc(N3CCc4ncc(-c5cnn(CC(F)(F)F)c5)cc4C3)c(C)c(C)c2n1 [Compound 1-184, 2,8,9-trimethyl-7-(3-(1-(2,2,2-trifluoroethyl)-1H-pyrazol-4-yl)-7,8-dihydro-1,6-naphthyridin-6(5H)-yl)-4H-pyrimido[1,2-b]pyridazin-4-one] | 80 | 1260 |
| Cc1cc(=O)n2nc(N3CCc4ncc(-c5cnn(C)c5C)cc4C3)c(C)c(C)c2n1 [Compound 1-185, 7-(3-(1,5-dimethyl-1H-pyrazol-4-yl)-7,8-dihydro-1,6-naphthyridin-6(5H)-yl)-2,8,9-trimethyl-4H-pyrimido[1,2-b]pyridazin-4-one] | 86 | 752 |
| COc1cc(C)c(-c2cnc3c(c2)CN(c2nn4c(=O)cc(C(F)F)nc4c(C)c2C)CC3)cn1 [Compound 1-188, 2-(difluoromethyl)-7-(3-(6-methoxy-4-methylpyridin-3-yl)-7,8-dihydro-1,6-naphthyridin-6(5H)-yl)-8,9-dimethyl-4H-pyrimido[1,2-b]pyridazin-4-one] | 91 | 103 |
| Cc1c(N2CCc3ncc(-c4cnccc4C(F)(F)F)cc3C2)nn2c(=O)cc(C(F)F)nc2c1C [Compound 1-189, 2-(difluoromethyl)-8,9-dimethyl-7-(3-(4-(trifluoromethyl)pyridin-3-yl)-7,8-dihydro-1,6-naphthyridin-6(5H)-yl)-4H-pyrimido[1,2-b]pyridazin-4-one] | 48 | 515 |
| COc1ccncc1-c1cnc2c(c1)CN(c1nn3c(=O)cc(C(F)F)nc3c(C)c1C)CC2 [Compound 1-190, 2-(difluoromethyl)-7-(3-(4-methoxypyridin-3-yl)-7,8-dihydro-1,6-naphthyridin-6(5H)-yl)-8,9-dimethyl-4H-pyrimido[1,2-b]pyridazin-4-one] | 77 | 156 |
| Cc1c(N2CCc3ncc(-c4cnn(C5CCOCC5)c4)cc3C2)nn2c(=O)ccnc2c1C [Compound 1-192, 8,9-dimethyl-7-(3-(1-(tetrahydro-2H-pyran-4-yl)-1H-pyrazol-4-yl)-7,8-dihydro-1,6-naphthyridin-6(5H)-yl)-4H-pyrimido[1,2-b]pyridazin-4-one] | 64 | 139 |
| Cc1c(N2CCc3ncc(-c4cnn(-c5ccccc5F)c4)cc3C2)nn2c(=O)ccnc2c1C [Compound 1-193, 7-(3-(1-(2-fluorophenyl)-1H-pyrazol-4-yl)-7,8-dihydro-1,6-naphthyridin-6(5H)-yl)-8,9-dimethyl-4H-pyrimido[1,2-b]pyridazin-4-one] | 71 | 783 |
| Cc1cc(=O)n2nc(N3CCc4ncc(-c5ccc(C)c(F)c5)cc4C3)c(C)c(C)c2n1 [Compound 1-196, 7-(3-(3-fluoro-4-methylphenyl)-7,8-dihydro-1,6-naphthyridin-6(5H)-yl)-2,8,9-trimethyl-4H-pyrimido[1,2-b]pyridazin-4-one] | 80 | 1130 |
| Cc1cc(=O)n2nc(N3CCc4ncc(-c5cnc(Cl)cc5C)cc4C3)c(C)c(C)c2n1 [Compound 1-197, 7-(3-(6-chloro-4-methylpyridin-3-yl)-7,8-dihydro-1,6-naphthyridin-6(5H)-yl)-2,8,9-trimethyl-4H-pyrimido[1,2-b]pyridazin-4-one] | 81 | 275 |
| COc1cc(C)c(-c2cnc3c(c2)CN(c2nn4c(=O)cc(C)nc4c(C)c2C)CC3)cn1 [Compound 1-198, 7-(3-(6-methoxy-4-methylpyridin-3-yl)-7,8-dihydro-1,6-naphthyridin-6(5H)-yl)-2,8,9-trimethyl-4H-pyrimido[1,2-b]pyridazin-4-one] | 83 | 1920 |
| COc1cncc(-c2cnc3c(c2)CN(c2nn4c(=O)cc(C)nc4c(C)c2C)CC3)c1 [Compound 1-199, 7-(3-(5-methoxypyridin-3-yl)-7,8-dihydro-1,6-naphthyridin-6(5H)-yl)-2,8,9-trimethyl-4H-pyrimido[1,2-b]pyridazin-4-one] | 74 | 526 |
| Cc1cc(=O)n2nc(N3CCc4ncc(-c5cc(F)c(F)cc5F)cc4C3)c(C)c(C)c2n1 [Compound 1-200, 2,8,9-trimethyl-7-(3-(2,4,5-trifluorophenyl)-7,8-dihydro-1,6-naphthyridin-6(5H)-yl)-4H-pyrimido[1,2-b] pyridazin-4-one] | 84 | 531 |
| COc1ccc(-c2cnc3c(c2)CN(c2nn4c(=O)cc(C)nc4c(C)c2C)CC3)cc1F [Compound 1-201, 7-(3-(3-fluoro-4-methoxyphenyl)-7,8-dihydro-1,6-naphthyridin-6(5H)-yl)-2,8,9-trimethyl-4H-pyrimido[1,2-b]pyridazin-4-one] | 86 | 603 |
| Cc1cc(=O)n2nc(N3CCc4ncc(-c5cccc(F)c5)cc4C3)c(C)c(C)c2n1 [Compound 1-203, 7-(3-(3-fluorophenyl)-7,8-dihydro-1,6-naphthyridin-6(5H)-yl)-2,8,9-trimethyl-4H-pyrimido[1,2-b]pyridazin-4-one] | 80 | 417 |
| Cc1cc(=O)n2nc(N3CCc4ncc(-c5ccc(F)nc5)cc4C3)c(C)c(C)c2n1 [Compound 1-204, 7-(3-(6-fluoropyridin-3-yl)-7,8-dihydro-1,6-naphthyridin-6(5H)-yl)-2,8,9-trimethyl-4H-pyrimido[1,2-b]pyridazin-4-one] | 92 | 102 |
| Cc1cc(=O)n2nc(N3CCc4ncc(-c5ccc(F)c(F)c5)cc4C3)c(C)c(C)c2n1 [Compound 1-205, 7-(3-(3,4-difluorophenyl)-7,8-dihydro-1,6-naphthyridin-6(5H)-yl)-2,8,9-trimethyl-4H-pyrimido[1,2-b]pyridazin-4-one] | 81 | 1240 |

More lines, now with the values ahead:

| Emax at 30 µM [%] | EC50 [nM] | Compound |
| --- | --- | --- |
| 66 | 1410 | Cc1cc(=O)n2nc(N3CCc4ncc(-c5cnn(C6CCOCC6)c5)cc4C3)c(C)c(C)c2n1 [Compound 1-182, 2,8,9-trimethyl-7-(3-(1-(tetrahydro-2H-pyran-4-yl)-1H-pyrazol-4-yl)-7,8-dihydro-1,6-naphthyridin-6(5H)-yl)-4H-pyrimido[1,2-b]pyridazin-4-one] |
| 79 | 582 | Cc1cc(=O)n2nc(N3CCc4ncc(-c5cnn(C6CC6)c5)cc4C3)c(C)c(C)c2n1 [Compound 1-183, 7-(3-(1-cyclopropyl-1H-pyrazol-4-yl)-7,8-dihydro-1,6-naphthyridin-6(5H)-yl)-2,8,9-trimethyl-4H-pyrimido[1,2-b]pyridazin-4-one] |
| 84 | 460 | COc1ccc(-c2cnc3c(c2)CN(c2nn4c(=O)cc(C)nc4c(C)c2C)CC3)cn1 [Compound 1-186, 7-(3-(6-methoxypyridin-3-yl)-7,8-dihydro-1,6-naphthyridin-6(5H)-yl)-2,8,9-trimethyl-4H-pyrimido[1,2-b]pyridazin-4-one] |
| 95 | 109 | Cc1cc(Cl)c(-c2cnc3c(c2)CN(c2nn4c(=O)cc(C(F)F)nc4c(C)c2C)CC3)cn1 [Compound 1-187, 7-(3-(4-chloro-6-methylpyridin-3-yl)-7,8-dihydro-1,6-naphthyridin-6(5H)-yl)-2-(difluoromethyl)-8,9-dimethyl-4H-pyrimido[1,2-b]pyridazin-4-one] |
| 84 | 2400 | Cc1ccc(-c2cnc3c(c2)CN(c2nn4c(=O)cc(C(F)F)nc4c(C)c2C)CC3)cc1F [Compound 1-191, 2-(difluoromethyl)-7-(3-(3-fluoro-4-methylphenyl)-7,8-dihydro-1,6-naphthyridin-6(5H)-yl)-8,9-dimethyl-4H-pyrimido[1,2-b]pyridazin-4-one] |
| 83 | 93 | Cc1ccc(F)cc1-c1cnc2c(c1)CN(c1nn3c(=O)ccnc3c(C)c1C)CC2 [Compound 1-194, 7-(3-(5-fluoro-2-methylphenyl)-7,8-dihydro-1,6-naphthyridin-6(5H)-yl)-8,9-dimethyl-4H-pyrimido[1,2-b]pyridazin-4-one] |
| 82 | 185 | Cc1cc2nc(C(C)(C)O)cc(=O)n2nc1N1CCc2ncc(C(F)(F)F)cc2C1 [Compound 1-195, 2-(2-hydroxypropan-2-yl)-8-methyl-7-(3-(trifluoromethyl)-7,8-dihydro-1,6-naphthyridin-6(5H)-yl)-4H-pyrimido[1,2-b] pyridazin-4-one] |
| 91 | 104 | Cc1cc(=O)n2nc(N3CCc4ncc(-c5cnc(F)cc5C)cc4C3)c(C)c(C)c2n1 [Compound 1-202, 7-(3-(6-fluoro-4-methylpyridin-3-yl)-7,8-dihydro-1,6-naphthyridin-6(5H)-yl)-2,8,9-trimethyl-4H-pyrimido[1,2-b]pyridazin-4-one] |
| 71 | 409 | Cc1cc(=O)n2nc(N3CCc4ncc(-c5ccc(C)c(F)c5)cc4C3)c(C)cc2n1 [Compound 1-206, 7-(3-(3-fluoro-4-methylphenyl)-7,8-dihydro-1,6-naphthyridin-6(5H)-yl)-2,8-dimethyl-4H-pyrimido[1,2-b]pyridazin-4-one] |
